Converted amounts (≈) assume the structure as drawn.
Experiments:
P388 = assay: Cytotoxicity against mouse P388 cells; type: functional, cell-based
[1] = Cytotoxicity against human Mel20 cells; type: functional, cell-based
Plasmodium falciparum [2] = assay: Antimalarial activity against Plasmodium falciparum D6; type: functional, organism-based
A549 = assay: Cytotoxicity against human A549 cells; type: functional, cell-based
Plasmodium falciparum [3] = assay: Antimalarial activity against Plasmodium falciparum W2; type: functional, organism-based
HT-29 = assay: Cytotoxicity against human HT-29 cells; type: functional, cell-based

CC(C)=C[C@H]1C[C@H](C)[C@]2(CC[C@]3(C)C[C@H]4[C@H](C(=O)C[C@@]4(C)O)/C(C=O)=C\C[C@H]32)O1 [OPHIOBOLIN A]
IC50 (P388): 0.025 mg/L (≈ 0.0624 µM) | IC50 [1]: 0.05 mg/L (≈ 0.125 µM) | IC50 (Plasmodium falciparum [2]): < 0.529 mg/L | IC50 (A549): 0.05 mg/L (≈ 0.125 µM) | IC50 (Plasmodium falciparum [3]): 0.58 mg/L (≈ 1.45 µM) | IC50 (HT-29): 0.05 mg/L (≈ 0.125 µM)
